Patent publication US20080108661A1, “Medicaments” (AstraZeneca AB, priority 2006, published 2008)

Assays:
CCR3 = target: T1, CCR3 (Homo sapiens, UniProt P51677); assay: Chemokine (CCR3 ligand) stimulation of human OA cartilage explant, gene expression (low density array Q-PCR); format: cell-based
T1 construct: Human osteoarthritic cartilage is obtained during total knee replacement surgery; from tissue; host or cells: human osteoarthritic knee articular cartilage explants (femoral condyles and tibial plateau)
T1 sequence (P51677 1-355): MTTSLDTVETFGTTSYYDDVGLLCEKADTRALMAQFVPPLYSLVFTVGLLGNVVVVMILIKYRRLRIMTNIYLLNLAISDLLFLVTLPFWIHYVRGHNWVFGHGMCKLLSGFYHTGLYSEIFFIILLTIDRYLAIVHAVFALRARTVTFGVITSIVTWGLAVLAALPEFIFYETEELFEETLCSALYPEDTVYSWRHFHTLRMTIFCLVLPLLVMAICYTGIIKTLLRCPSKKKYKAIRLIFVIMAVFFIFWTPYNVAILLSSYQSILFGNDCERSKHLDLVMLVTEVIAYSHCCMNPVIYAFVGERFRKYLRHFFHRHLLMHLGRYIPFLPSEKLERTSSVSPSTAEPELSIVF
From the text: (ii) Chemokine Stimulation of Human Cartilage Explant
Human osteoarthritic cartilage is obtained during total knee replacement surgery. Full-depth cartilage slices are obtained from both the femoral condyles and the tibial plateau and explant discs removed using a 5 mm diameter KAI sterile dermal biopsy punch. After dissection, the explants are all pooled in a Petri dish. For each condition, sixteen explants are randomly taken from the Petri dish and cultured in polypropylene 96-well plates with phenol red free Dulbecco's Modified Eagle Medium (DMEM; Gibco, Grand Island, N.Y.), 150 μg/ml gentamicin, 1.5 μg/ml fungizone and 100 units/ml penicillin, 100 μg/ml streptomycin and L-Glutamine.
After an initial 48 hour pre-stimulation, rest period, experimental reagents are added for 24, 48 or 96 hours. Explants are incubated with the appropriate concentration of compound alone, or DMSO as a control, for 20 minutes prior to addition of the chemokine. Cartilage is subsequently treated with either vehicle control (plus DMSO); chemokine (at 30-300 ng/ml) plus DMSO; or chemokine (30 ng/ml) plus the compound of Example 1. Conditioned media are collected 24, 48 or 96 hours post stimulation and stored at −20° C. prior to analysis. Cartilage explants are also collected and snap frozen in liquid nitrogen, prior to RNA extraction.
Extraction of RNA from Cartilage Explants
Each condition is composed of sixteen cartilage explant discs, which are pooled prior to snap freezing in liquid nitrogen. These pooled samples are ground to a fine powder under liquid nitrogen then resuspended in 10 ml trizol in polypropylene Oakridge tubes, and RNA extracted according to the manufacturer's protocol. The RNA pellet is resuspended in approx 500 μl RNAse and DNAse free water and then combined with 1.75 ml Qiagen RLT. RNA is further purified with Qiagen RNEasy mini columns (Qiagen Cat# 74104), as described in the manufacturer's protocol, including on column DNA digestion. The RNA obtained by these procedures is analysed using Agilent bioanalyser technology, according to the manufacturer's instructions, to determine the quantity and quality.
Gene Expression Analysis: the 96 and 48 Gene Fingerprints Using Low Density Arrays (Q-PCR)
Low-density gene arrays [quantitative polymerise chain reaction (Q-PCR) method] with either 96 or 48 genes pertinent to OA (as identified by Affymetrix microarray analysis of OA articular cartilage) are used to assess the effects of treating human diseased cartilage explants with the chemokines eotaxin-2 or RANTES, alone or in combination with the compound of Example 1. Gene expression changes were reported as fold change normalised against a standard non-affected gene: GAPDH.

[1] = tested on: human articular chondrocytes (HAC)
Experimental: (i) Isolation of Human Articular Chondrocytes (HAC) from OA Cartilage for Histamine stimulation. HAC are isolated from cartilage from osteoarthritic tissues removed at joint replacement. Cartilage is incubated overnight in 2 mg/ml collagenase in DMEM+10% FCS+PSG at 37° C., with shaking. The resulting cell suspension is filtered to remove undigested cartilage and the cells are centrifuged at 1200 rpm for 10 minutes. Cells are resuspended in DMEM plus 10% FCS PSG/NEAA/fungizone/gentamycin, plated at approx 5×10^−6 in a T-75 and grown to confluence. Cells are subsequently plated at approx 10,000 cells per well into 96 well plates for stimulation with histamine. Triplicate wells of first passage HAC are treated with either DMEM (10% or 0% FCS) alone (control), or DMEM (10% or 0% FCS) plus histamine (dose range 10 nM up to 1 mM). Cells are incubated at 37° C. for 24 hours, the conditioned medium harvested, and assayed for PGE2, MMP or cytokine production by enzyme linked immunosorbent assay (ELISA). […] For some experiments cells are incubated with specific antagonists for 20 minutes prior to, and in combination with, histamine stimulation.

[2] = tested on: human articular chondrocytes (HAC); remark: listed apart in the source
[3] = tested on: murine articular knee joint; assay: Histamine-induced joint oedema, murine articular knee joint (calliper measurements); format: in vivo, mouse
From the text: (§1) (iii) In Vivo Functional Validation of Histamine-Induced Responses Murine Articular Knee Joint
(§2) It is hypothesised that histamine released by trafficking mast cells or by the de novo synthesis of histamine by articular chondrocytes induces a H1-dependant increase in COX-2 mRNA expression and elevated PGE2 synthesis in synovial fibroblasts and articular chondrocytes. To evaluate the role of histamine in pathological processes in the joint, a pharmacodynamic mouse model was developed to investigate the effect of intra-articular injection (IAI) of histamine on joint swelling using calliper measurements, and measuring PGE2 and/or 11-6 levels from synovial knee joint ravages.
(§3) Adult C57B16 mice were dosed with either vehicle or test compound 1 hour prior to intra-articular injection of histamine (5 μmol). Swelling was induced by injection of 6 μl of histamine/saline suspension into the knee joint cavity under inhalation anaesthesia with isoflurane. Joint swelling was quantified by calliper measurements taken at 1, 6, 12, 24, 36 and 48 hr. Terminal synovial fluid knee lavages were sampled and levels of the inflammatory mediator I1-6 were measured in the fluid from synovial knee joint ravages.

[4] = tested on: murine articular knee joint; details: intra-articular histamine injection, mice
From the text: as §1, §2, §3

[5] = Eotaxin 2 stimulation, donor 014—04

O=C(NC[C@@H](O)CN1CCC(Oc2ccc(Cl)c(Cl)c2)CC1)c1sc(=O)[nH]c1C(F)(F)F [Example 1, N-{(2R)-3-[4-(3,4-Dichlorophenoxy)piperidin-1-yl]-2-hydroxypropyl}-2,3-dihydro-2-oxo-4-(trifluoromethyl)-5-thiazolecarboxamide benzenesulfonate Form A]
inhibition of CCR3 ligand-induced increase in ADAMTS4, MMP13, IL-6, IL-8 and MMP2 mRNA expression (CCR3; at 3×pA2, n=3 (FIG. 3)): inhibited

O=C(O)COCCN1CCN(C(c2ccccc2)c2ccc(Cl)cc2)CC1 (stereo not shown) [cetirizine]
inhibition of histamine-induced PGE2 release ([1]; 100 nM (FIG. 2)): inhibited
inhibition of histamine-induced increase in Cox2 mRNA expression ([2]; 100 nM): inhibited

NCCc1c[nH]cn1 [histamine, 2-(4-imidazolyl)-ethylamine]
release of PGE2 ([1]; histamine stimulation, n=6 (FIG. 2)): dose dependent increase
Cox2 mRNA expression levels ([2]; histamine stimulation): increase
increase in joint oedema compared to vehicle control animals ([3]; intra-articular injection of histamine (5 μmol), C57B16 mice): 5 fold
increase in release of IL-6 into the synovial fluid [4]: > 60%

Clc1ccc2c(c1)CCc1cccnc1C2=C1CCNCC1 [desloratadine]
histamine-induced joint swelling under treatment ([3]; 5.1 mg/kg, dosed 1 hour prior to intra-articular histamine): almost completely ablated

B1: Eotaxin 2: the CCR3 ligand, a chemokine used to stimulate cartilage explants (protein, UniProt O00175 27-119, looked up)
C-C motif chemokine 24: VVIPSPCCMFFVSKRIPENRVVSYQLSSRSTCLKAGVIFTTKKGQQFCGDPKQEWVQRYMKNLDAKQKKASPRARAVAVKGPVQRYPGNQTTC
increased expression of IL-6 (CCR3; [5]): 14 fold
increased expression of IL-8 (CCR3; [5]): 11 fold
elevation of periostin expression (CCR3; donor 014—04): 2 fold
enhanced expression of ADAMTS4 (CCR3; donor 014—04): 3.6 fold
enhanced expression of ADAMTS 5 (CCR3; donor 014—04): 6 fold
